Laboratory results reported in patent US20260216238A1, “TETRATHIOMOLYBDIC ACID FOR USE IN TREATING COPPER METABOLISM-ASSOCIATED DISEASES OR DISORDERS (WILSON DISEASE)” (Alexion Pharmaceuticals, Inc., priority 2023, published 2026).

System: patients with Wilson disease (WD)
Assay: UWDRS Part III total score, functional subscale and individual items (neurological examination)
Assay type: in vivo, human
Settings: for UWDRS Part III (0-175) change from baseline, Mean (SD) / UWDRS Part III Functional Subscale (0-10) change from baseline, Mean (SD): pooled Studies 301 and 201
Description: The UWDRS scoring system was developed specifically for the motor and movement disorders associated with chronic copper neurotoxicity in WD. Some individual items/subscales of the UWDRS Part III (arising from a chair, gait, handwriting, and speech) in addition to the UWDRS Parts I, II, and III overall, were assessed to further define the range of burdensome signs and symptoms of WD, so as to further understand the assessment of treatment effects on patients with WD. The UWDRS scores for consciousness (Part I) and abnormal neurologic examination findings (Part III) will be determined by a trained neurologist rater who is blinded to study treatment randomization. These scores were used to provide a rigorous dataset for evaluating changes from baseline.
Unified Wilson Disease Rating Scale (Parts I, II, and III): The UWDRS is a clinical rating scale designed to evaluate the neurological manifestations of WD that generally can be divided into 3 movement disorder syndromes: dystonic, ataxic, and Parkinsonian syndrome. The UWDRS comprises 3 parts: UWDRS Part I (level of consciousness, item 1), UWDRS Part II (a patient-reported review of daily activity items [disability], items 2 to 11), and UWDRS Part III (a detailed neurological examination, items 12 to 34).
The UWDRS Part I and Part III were assessed by a neurologist who is blinded to the treatment randomization, while UWDRS Part II may be reported to a non-blinded member of the study team by the patient, family member, or caregiver. The UWDRS has not been formally evaluated in adolescents. However, the components of Part I (level of consciousness), Part II (patient or caregiver-reported disability) and Part III (neurologic examination findings) were not fundamentally different between adults and adolescents. Patients aged 12 years and older were expected to be able to comply with UWDRS assessments.
Pooled results from all such participants will be integrated together into one timeline to allow analyses of changes in UWDRS, long-term copper control, and long-term safety laboratory data.
Endpoints (directly measured non-ceruloplasmin-bound copper [dNCC], UWDRS III (rater blinded) total and individual item scores, Clinical Global Impression-Improvement [CGI-I]) were evaluated at baseline (BL) and Week 48 (W48). Normalization (score decrease to 0), improvement (≥1 point decrease), stability (no change), or worsening (≥1 point increase) of total and individual UWDRS III item scores were evaluated at W48.

[1] = Subpopulation E (incomplete or intolerant responders), Week 48, MMRM
[2] = Subpopulation E (incomplete or intolerant responders), Week 48, TTM N=79, SoC N=38

bis-choline tetrathiomolybdate [TTM]
UWDRS Part III score change (mean) (0-48W, symptomatic patients): −2.91 | UWDRS symptom: Arising from chair (BL): 85 | UWDRS symptom: Arm and hand Dystonia (BL): 64 | UWDRS symptom: Cervical Dystonia (BL): 74 | UWDRS symptom: Chorea (BL): 90 | UWDRS symptom: Facial Expression (BL): 57 | UWDRS symptom: Finger Taps (BL): 44 | UWDRS symptom: Finger to Nose (BL): 67 | UWDRS symptom: Gait (BL): 59 | UWDRS symptom: Handwriting (BL): 55 | UWDRS symptom: Head Tremor (BL): 84 | UWDRS symptom: Involuntary Crying (BL): 99 | UWDRS symptom: Jaw Tremor (BL): 99 | UWDRS symptom: Leg Ability (BL): 62 | UWDRS symptom: Oculomotor (BL): 89 | UWDRS symptom: Postural Arm Tremor (BL): 49 | UWDRS symptom: Postural Leg Tremor (BL): 68 | UWDRS symptom: Posture (BL): 67 | UWDRS symptom: Pyramidal Signs (BL): 89 | UWDRS symptom: RAM of Hands (BL): 48 | UWDRS symptom: Rigidity (BL): 58 | UWDRS symptom: Speech (BL): 44 | UWDRS symptom: Stereotyped Actions (BL): 93 | UWDRS symptom: Tremor at rest (BL): 75 | UWDRS symptom: Wing-beating tremor (BL): 64 | UWDRS-III, observed value, Mean (SD) (Baseline, N=220): 15.43 (19.833) | UWDRS Part III (0-175), Change from Baseline at 48 weeks, LSM (Study 301 Full Analysis Set): −0.60 | UWDRS Part III (0-175), Change from Baseline at 48 weeks, Mean (Study 301 Full Analysis Set): −2.20 | UWDRS Part III functional subscale (0-10), Change from Baseline at 48 weeks, LSM (Study 301 Full Analysis Set): 0.001 | UWDRS Part III functional subscale (0-10), Change from Baseline at 48 weeks, Mean (Study 301 Full Analysis Set): −0.147 | UWDRS Part III-arising from chair (0-4), Change from Baseline at 48 weeks, LSM (Study 301 Full Analysis Set): 0.0 | UWDRS Part III-arising from chair (0-4), Change from Baseline at 48 weeks, Mean (Study 301 Full Analysis Set): 0.0 | UWDRS Part III-gait (0-10), Change from Baseline at 48 weeks, LSM (Study 301 Full Analysis Set): 0.06 | UWDRS Part III-gait (0-10), Change from Baseline at 48 weeks, Mean (Study 301 Full Analysis Set): −0.06 | UWDRS Part III-handwriting (0-4), Change from Baseline at 48 weeks, LSM (Study 301 Full Analysis Set): −0.1 | UWDRS Part III-handwriting (0-4), Change from Baseline at 48 weeks, Mean (Study 301 Full Analysis Set): −0.1 | UWDRS Part III-speech (0-4), Change from Baseline at 48 weeks, LSM (Study 301 Full Analysis Set): 0.0 | UWDRS Part III-speech (0-4), Change from Baseline at 48 weeks, Mean (Study 301 Full Analysis Set): −0.1 | UWDRS Part III change from baseline, LSM [1]: −2.52 | UWDRS Part III change from baseline, LSM Diff (TTM vs SoC) [1]: −0.53 | UWDRS Part III change from baseline, Mean [2]: −2.64 | UWDRS Part III change from baseline, Median [2]: −1.00 | UWDRS Part III, Change from Baseline, Max [2]: 31.0 | UWDRS Part III, Change from Baseline, Min [2]: −28.0, | UWDRS Part III, Change from Baseline, Q1 [2]: −6.00, | UWDRS Part III, Change from Baseline, Q3 [2]: 0.00 | UWDRS-III change from baseline, Mean (SD) (TTM exposure 4 weeks, N=215): −0.72 (6.701) | UWDRS Part III (0-175) change from baseline, Mean (SD) (TTM exposure 4 weeks): −0.72 (6.701) | UWDRS Part III Functional Subscale (0-10) change from baseline, Mean (SD) (TTM exposure 4 weeks): −0.072 (0.6009) | UWDRS-III change from baseline, Mean (SD) (TTM exposure 12 weeks, N=204): −1.11 (7.065) | UWDRS Part III (0-175) change from baseline, Mean (SD) (TTM exposure 12 weeks): −1.11 (7.065) | UWDRS Part III Functional Subscale (0-10) change from baseline, Mean (SD) (TTM exposure 12 weeks): −0.137 (0.7864) | UWDRS-III change from baseline, Mean (SD) (TTM exposure 24 weeks, N=182): −0.97 (8.447) | UWDRS Part III (0-175) change from baseline, Mean (SD) (TTM exposure 24 weeks): −0.97 (8.447) | UWDRS Part III Functional Subscale (0-10) change from baseline, Mean (SD) (TTM exposure 24 weeks): −0.157 (0.9091) | UWDRS-III change from baseline, Mean (SD) (TTM exposure 36 weeks, N=156): −2.38 (8.581) | UWDRS Part III (0-175) change from baseline, Mean (SD) (TTM exposure 36 weeks): −2.38 (8.581) | UWDRS Part III Functional Subscale (0-10) change from baseline, Mean (SD) (TTM exposure 36 weeks): −0.286 (0.9929) | UWDRS-III change from baseline, Mean (SD) (TTM exposure 48 weeks, N=156): −3.37 (9.778) | UWDRS Part III (0-175) change from baseline, Mean (SD) (TTM exposure 48 weeks): −3.37 (9.778) | UWDRS Part III Functional Subscale (0-10) change from baseline, Mean (SD) (TTM exposure 48 weeks): −0.345 (1.0940) | UWDRS-III change from baseline, Mean (SD) (TTM exposure 60 weeks, N=141): −2.00 (6.40) | UWDRS Part III (0-175) change from baseline, Mean (SD) (TTM exposure 60 weeks): −2.00 (6.40) | UWDRS Part III Functional Subscale (0-10) change from baseline, Mean (SD) (TTM exposure 60 weeks): −0.422 (1.0814) | UWDRS-III change from baseline, Mean (SD) (TTM exposure 72 weeks, N=125): −4.93 (11.682) | UWDRS Part III (0-175) change from baseline, Mean (SD) (TTM exposure 72 weeks): −4.93 (11.682) | UWDRS Part III Functional Subscale (0-10) change from baseline, Mean (SD) (TTM exposure 72 weeks): −0.494 (1.2826) | UWDRS-III change from baseline, Mean (SD) (TTM exposure 96 weeks, N=66): −7.95 (14.078) | UWDRS Part III (0-175) change from baseline, Mean (SD) (TTM exposure 96 weeks): −7.95 (14.078) | UWDRS Part III Functional Subscale (0-10) change from baseline, Mean (SD) (TTM exposure 96 weeks): −0.900 (1.5193) | UWDRS-III change from baseline, Mean (SD) (TTM exposure 120 weeks, N=50): −8.92 (15.045) | UWDRS Part III (0-175) change from baseline, Mean (SD) (TTM exposure 120 weeks): −8.92 (15.045) | UWDRS Part III Functional Subscale (0-10) change from baseline, Mean (SD) (TTM exposure 120 weeks): −0.946 (1.7746) | UWDRS-III change from baseline, Mean (SD) (TTM exposure 144 weeks, N=42): −9.78 (15.423) | UWDRS Part III (0-175) change from baseline, Mean (SD) (TTM exposure 144 weeks): −9.78 (15.423)
